Assay results published in ChEMBL document CHEMBL1201862, “PubChem BioAssay data set” (2004).
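Where inhibition never reached the appropriate level, the endpoint shown equals the highest concentration tested. Otherwise, values were interpolated linearly from a five-concentration, 48-hour dose response in 96-well plates. Here, GI50 denotes the concentration required for 50% inhibition of growth.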 The source made the active and inactive calls. Rule as the data show it: active = GI50 up to about 1.1 µM and inactive = higher.

What was measured:
Assay in all cases: growth of human tumour cells (NCI), 48 h
COLO 205 = system: COLO 205
HCT-116 = system: HCT-116
UO-31 = system: UO-31
NCI-H23 = system: NCI-H23
A498 = system: A498
SK-MEL-28 = system: SK-MEL-28
SW-620 = system: SW-620
U-251 = system: U-251
UACC-257 = system: UACC-257
MDA-MB-231 = system: MDA-MB-231
SF-295 = system: SF-295
KM12 = system: KM12
OVCAR-8 = system: OVCAR-8
T47D = system: T47D
EKVX = system: EKVX
A549 = system: A549
HT-29 = system: HT-29
SNB-75 = system: SNB-75
IGROV-1 = system: IGROV-1
OVCAR-3 = system: OVCAR-3
CCRF-CEM = system: CCRF-CEM
K562 = system: K562
NCI-H460 = system: NCI-H460
SN12C = system: SN12C
Malme-3M = system: Malme-3M
HCC 2998 = system: HCC 2998
SK-MEL-2 = system: SK-MEL-2
MOLT-4 = system: MOLT-4
PC-3 = system: PC-3
OVCAR-5 = system: OVCAR-5
HCT-15 = system: HCT-15
SF-268 = system: SF-268
HL-60 = system: HL-60
TK-10 = system: TK-10
Hs-578T = system: Hs-578T
CAKI-1 = system: CAKI-1
LOX IMVI = system: LOX IMVI
DU-145 = system: DU-145
UACC-62 = system: UACC-62
NCI-H226 = system: NCI-H226
ACHN = system: ACHN
SF-539 = system: SF-539
OVCAR-4 = system: OVCAR-4
RPMI-8226 = system: RPMI-8226
NCI/ADR-RES = system: NCI/ADR-RES
MDA-MB-435 = system: MDA-MB-435
HOP-92 = system: HOP-92
M14 = system: M14
MCF7 = system: MCF7
SK-MEL-5 = system: SK-MEL-5
MDA-N = system: MDA-N
SK-OV-3 = system: SK-OV-3
BT-549 = system: BT-549
SNB-19 = system: SNB-19
786-0 = system: 786-0
NCI-H522 = system: NCI-H522
HOP-62 = system: HOP-62
RXF 393 = system: RXF 393

COc1ccc(CC2c3cc4c(cc3CCN2C)OCO4)c(C=O)c1OC (centres undefined)
GI50 (COLO 205): > 100 µM (inactive) | GI50 (HCT-116): > 100 µM (inactive) | GI50 (UO-31): > 100 µM (inactive) | GI50 (NCI-H23): > 100 µM (inactive) | GI50 (A498): > 100 µM (inactive) | GI50 (SK-MEL-28): > 100 µM (inactive) | GI50 (SW-620): > 100 µM (inactive) | GI50 (U-251): > 100 µM (inactive) | GI50 (UACC-257): > 100 µM (inactive) | GI50 (MDA-MB-231): > 100 µM (inactive) | GI50 (SF-295): > 100 µM (inactive) | GI50 (KM12): > 100 µM (inactive) | GI50 (OVCAR-8): > 100 µM (inactive) | GI50 (T47D): > 100 µM (inactive) | GI50 (EKVX): > 100 µM (inactive) | GI50 (A549): > 100 µM (inactive) | GI50 (HT-29): > 100 µM (inactive) | GI50 (SNB-75): 40.8 µM (inactive) | GI50 (IGROV-1): > 100 µM (inactive) | GI50 (OVCAR-3): > 100 µM (inactive) | GI50 (CCRF-CEM): > 100 µM (inactive) | GI50 (K562): > 100 µM (inactive) | GI50 (NCI-H460): > 100 µM (inactive) | GI50 (SN12C): > 100 µM (inactive) | GI50 (Malme-3M): > 100 µM (inactive) | GI50 (HCC 2998): > 100 µM (inactive) | GI50 (SK-MEL-2): > 100 µM (inactive) | GI50 (MOLT-4): > 100 µM (inactive) | GI50 (PC-3): > 100 µM (inactive) | GI50 (OVCAR-5): > 100 µM (inactive) | GI50 (HCT-15): > 100 µM | GI50 (SF-268): > 100 µM (inactive) | GI50 (HL-60): > 100 µM (inactive) | GI50 (TK-10): > 100 µM (inactive) | GI50 (Hs-578T): > 100 µM (inactive) | GI50 (CAKI-1): 60.5 µM (inactive) | GI50 (LOX IMVI): > 100 µM (inactive) | GI50 (DU-145): > 100 µM (inactive) | GI50 (UACC-62): > 100 µM (inactive) | GI50 (NCI-H226): 57.9 µM (inactive) | GI50 (ACHN): > 100 µM (inactive) | GI50 (SF-539): > 100 µM (inactive) | GI50 (OVCAR-4): > 100 µM (inactive) | GI50 (RPMI-8226): > 100 µM (inactive) | GI50 (NCI/ADR-RES): > 100 µM (inactive) | GI50 (MDA-MB-435): > 100 µM (inactive) | GI50 (HOP-92): > 100 µM (inactive) | GI50 (M14): > 100 µM (inactive) | GI50 (MCF7): > 100 µM (inactive) | GI50 (SK-MEL-5): > 100 µM (inactive) | GI50 (MDA-N): > 100 µM (inactive) | GI50 (SK-OV-3): > 100 µM (inactive) | GI50 (BT-549): > 100 µM (inactive) | GI50 (SNB-19): > 100 µM (inactive) | GI50 (786-0): > 100 µM (inactive) | GI50 (NCI-H522): > 100 µM (inactive)

COc1ccc2[nH]c3c(c2c1)CC(=O)N1CCCC(CC3O)C1 (centres undefined)
GI50 (COLO 205): > 100 µM (inactive) | GI50 (HCT-116): > 100 µM (inactive) | GI50 (UO-31): > 100 µM (inactive) | GI50 (NCI-H23): > 100 µM (inactive) | GI50 (A498): > 100 µM (inactive) | GI50 (SK-MEL-28): > 100 µM (inactive) | GI50 (SW-620): > 100 µM (inactive) | GI50 (U-251): > 100 µM (inactive) | GI50 (UACC-257): > 100 µM (inactive) | GI50 (MDA-MB-231): > 100 µM (inactive) | GI50 (SF-295): > 100 µM (inactive) | GI50 (KM12): > 100 µM (inactive) | GI50 (OVCAR-8): > 100 µM (inactive) | GI50 (T47D): > 100 µM (inactive) | GI50 (A549): > 100 µM (inactive) | GI50 (HT-29): > 100 µM (inactive) | GI50 (SNB-75): > 100 µM (inactive) | GI50 (IGROV-1): > 100 µM (inactive) | GI50 (K562): > 100 µM (inactive) | GI50 (NCI-H460): > 100 µM (inactive) | GI50 (SN12C): > 100 µM (inactive) | GI50 (Malme-3M): > 100 µM (inactive) | GI50 (HCC 2998): > 100 µM (inactive) | GI50 (SK-MEL-2): > 100 µM (inactive) | GI50 (PC-3): > 100 µM (inactive) | GI50 (HCT-15): > 100 µM | GI50 (SF-268): > 100 µM (inactive) | GI50 (TK-10): > 100 µM (inactive) | GI50 (Hs-578T): > 100 µM (inactive) | GI50 (CAKI-1): > 100 µM (inactive) | GI50 (LOX IMVI): > 100 µM (inactive) | GI50 (DU-145): > 100 µM (inactive) | GI50 (UACC-62): > 100 µM (inactive) | GI50 (NCI-H226): > 100 µM (inactive) | GI50 (ACHN): > 100 µM (inactive) | GI50 (SF-539): > 100 µM (inactive) | GI50 (OVCAR-4): > 100 µM (inactive) | GI50 (RPMI-8226): > 100 µM (inactive) | GI50 (NCI/ADR-RES): > 100 µM (inactive) | GI50 (MDA-MB-435): > 100 µM (inactive) | GI50 (HOP-92): > 100 µM (inactive) | GI50 (MCF7): > 100 µM (inactive) | GI50 (SK-MEL-5): > 100 µM (inactive) | GI50 (MDA-N): > 100 µM (inactive) | GI50 (SK-OV-3): > 100 µM (inactive) | GI50 (BT-549): > 100 µM (inactive) | GI50 (SNB-19): > 100 µM (inactive) | GI50 (786-0): > 100 µM (inactive) | GI50 (NCI-H522): > 100 µM (inactive)

Cc1oc2nc1C(=O)NCc1nc(cs1)C(=O)N[C@H](C(C)C)c1nc(cs1)C(=O)N[C@H]2C
GI50 (COLO 205): 75.7 µM (inactive) | GI50 (HCT-116): 45.8 µM (inactive) | GI50 (UO-31): 37.2 µM (inactive) | GI50 (NCI-H23): > 100 µM (inactive) | GI50 (A498): > 100 µM (inactive) | GI50 (SK-MEL-28): > 100 µM (inactive) | GI50 (SW-620): > 100 µM (inactive) | GI50 (U-251): > 100 µM (inactive) | GI50 (UACC-257): > 100 µM (inactive) | GI50 (MDA-MB-231): 9.57 µM (inactive) | GI50 (SF-295): 18.4 µM (inactive) | GI50 (KM12): 61.4 µM (inactive) | GI50 (OVCAR-8): 35.2 µM (inactive) | GI50 (T47D): 28.5 µM (inactive) | GI50 (EKVX): > 100 µM (inactive) | GI50 (A549): 47.2 µM (inactive) | GI50 (HT-29): 65 µM (inactive) | GI50 (SNB-75): 95.7 µM (inactive) | GI50 (IGROV-1): 29.9 µM (inactive) | GI50 (OVCAR-3): > 100 µM (inactive) | GI50 (CCRF-CEM): > 100 µM (inactive) | GI50 (K562): 54.8 µM (inactive) | GI50 (NCI-H460): 66.7 µM (inactive) | GI50 (SN12C): 58.5 µM (inactive) | GI50 (Malme-3M): > 100 µM (inactive) | GI50 (HCC 2998): 43.7 µM (inactive) | GI50 (MOLT-4): 81.7 µM (inactive) | GI50 (PC-3): 40.3 µM (inactive) | GI50 (OVCAR-5): > 100 µM (inactive) | GI50 (HCT-15): 52.8 µM | GI50 (SF-268): 85.5 µM (inactive) | GI50 (Hs-578T): 75.3 µM (inactive) | GI50 (CAKI-1): 44.9 µM (inactive) | GI50 (DU-145): 79.3 µM (inactive) | GI50 (UACC-62): 81.5 µM (inactive) | GI50 (NCI-H226): 42.9 µM (inactive) | GI50 (ACHN): > 100 µM (inactive) | GI50 (SF-539): 42.3 µM (inactive) | GI50 (OVCAR-4): > 100 µM (inactive) | GI50 (RPMI-8226): 14.3 µM (inactive) | GI50 (NCI/ADR-RES): 30.1 µM (inactive) | GI50 (MDA-MB-435): > 100 µM (inactive) | GI50 (HOP-62): 85.1 µM (inactive) | GI50 (HOP-92): 61.1 µM (inactive) | GI50 (M14): > 100 µM (inactive) | GI50 (MCF7): 82.2 µM (inactive) | GI50 (SK-MEL-5): 23.1 µM (inactive) | GI50 (MDA-N): > 100 µM (inactive) | GI50 (SK-OV-3): > 100 µM (inactive) | GI50 (BT-549): > 100 µM (inactive) | GI50 (SNB-19): > 100 µM (inactive) | GI50 (786-0): 57.4 µM (inactive) | GI50 (NCI-H522): 26.7 µM (inactive) | GI50 (RXF 393): 8.34 µM (inactive)
